Tests used:
Y79 cells = experiment: Response of cultured retinoblastoma cells to drugs, proportion of viable cells (Y79); format: cell-based, human; settings: 8 hours exposure, assayed 3 days later
Source text: (§1) Cell Culture. Y79 and Weri1 cells were obtained from the American Type Culture Collection (Manassas, Va.) and maintained in culture in RPMI medium with 10% FCS (McFall, R. C. et al., “Characterization of a new continuous cell line derived from a human retinoblastoma”, Cancer Res 37: 1003-10 (1977)). Stable lines expressing GFP were generated by transfecting pTET-1 (M.A.D. unpublished) into Y79 and Weril cells by using TransFast (Promega, Madison, Wis.); clones were isolated in the presence of hygromycin. To measure live cells, 0.5 ug/ml calcein was used; to measure dead cells, 4 uM ethidium bromide was used.
(§2) Viable Cell Calculation Following Drug Treatment. […] The proportion of cells that had initiated apoptosis (T) was determined by a TUNEL assay.
(§3) Response of Cultured Retinoblastoma Cells to Chemotherapeutic Drugs. […] For all of the cell culture studies, retinoblastoma cells were exposed to drugs at a cell density corresponding to their optimal proliferation and cell survival. The cell number, proportion of metabolically active cells, and proportion of apoptotic cells were combined to generate the proportion of viable cells (see Materials and Methods for calculations). The proportion of dividing cells was estimated by labeling the cultures with BrdU for 1 hour. Initially, cells were exposed to TPT, CBP, or VCR for 8 hours at concentrations ranging from 1 nM to 200 uM, and the cultures were assayed 3 days later.

Weril cells = experiment: Response of cultured retinoblastoma cells to drugs, proportion of viable cells (Weri1); format: cell-based, human; settings: 8 hours exposure, assayed 3 days later
Source text: as §1, §2, §3

[1] = tested on: Y79 and Weril retinoblastoma cells; experiment: Combination, time course, FACS and DNA-content studies in cultured retinoblastoma cells; format: cell-based, human
Source text: as §1
Immunolabeling and TUNEL and BrdU Assays. Y79 and Weri1 retinoblastoma cells were immunolabeled as described previously for dissociated mouse retinae (Dyer, M. A. & Cepko, C. L., “p27Kip1 and p57Kip2 regulate proliferation in distinct retinal progenitor cell population”, J. of Neurosci 21: 4259-71 (2001); Zhu, C. C. et al., “Six2-mediated auto repression and eye development requires its interaction with members of the Groucho-related family of co-repressors”, Development 129: 2835-49 (2002); Dyer, M. A. & Cepko, C. L., “p57(Kip2) regulates progenitor cell proliferationand amacrine intemeuron development in the mouse retina”, Development 127: 3593-605 (2000)). For in vivo studies, BrdU (100 mg/kg body weight) was administered via tail vein injection. BrdU and TUNEL assays were carried out as described previously (Dyer, M. A. et. al., id, Zhu, C. C. et. al., id; Dyer, M. A. et. al., id). Detailed protocols are available at http://www.stjude.org/dyer.
Fluorescent-Activated Cell Sorting. DNA content was analyzed by dissociating tumors with trypsin (Dyer, M. A. et. al., id; Zhu, C. C. et. al., id; Dyer, M. A. et. al., id) and sorting cells by fluorescent-activated cell sorting (FACS). Cells were washed with PBS, and resuspended in a solution containing 0.05 mg/ml propidium iodide, 0.1% sodium citrate and, 0.1% Triton-X100. Samples were then treated with RNase, filtered through a 40-um nylon mesh, and analyzed on a FACScan (Beckton-Dickson, Franklin Lakes, N.J.).
as §2, §3
Following treatment, RNA was isolated and microarray hybridizations were carried out using the human H1 cDNA microarray (see Materials and Methods).
In these preliminary studies, we included an 8-h drug exposure, because that is the maximum period of drug exposure for children receiving chemotherapy. However, the time that tumor cells are exposed in situ is probably considerably shorter, so we performed a time course experiment to determine the minimum duration of exposure required for the full effect on retinoblastoma cell survival and proliferation.

Y79 and Weril cells = experiment: Microarray gene expression response of retinoblastoma cells to drugs; format: cell-based, human; settings: microarray analysis after treatment
Description: Microarray Hybridization. The H1 human cDNA microarray was printed at the Hartwell Center for Bioinformatics & Biotechnology at St. Jude Children's Research Hospital. The gene list is available at http://www.ncbi.nlm.nih.gov/geo/ (GEO Accession: GLP345). RNA was isolated from approximately 20×10^6 cells in triplicate for each treatment using Trizol (Invitrogen, Carlsbad, Calif.), and 10 ug total RNA underwent one round of linear amplification using the RiboAmp System (Arcturus Applied Genomics, Carlsbad, Calif.) to yield 100 ug of RNA. The RNA was indirectly labeled using aa-dUTP and conjugated with Cy3 and Cy5. Data were then filtered (see http://www.ncbi.nlm.nih.gov/geo/; GLP345 for details), and cluster analysis was performed.
Following treatment, RNA was isolated and microarray hybridizations were carried out using the human H1 cDNA microarray (see Materials and Methods). […] Using the LD50 of TPT, we tested the combination of TPT and CBP and that of TPT and VCR. […] This effect was additive.
Microarray analysis provided even more information about the response of retinoblastoma cells to chemotherapeutic drugs. […] VCR treatment also altered the expression of a different cohort of genes in comparison to TPT treatment. […]

in vivo = settings: for Kp: rat, in vivo, iv
Description: Pharmacology. Two-week-old rats were treated with TPT (Hycamtin; GlaxoSmithKline, Research Triangle Park, N.C.) at a maximum tolerated dose (MTD) of 2 mg/kg body weight, CBP (Paraplatin; Bristol-Myers Squibb, New York, N.Y.) at an MTD of 70 mg/kg, and VCR (Mayne Pharma (USA Inc., Paramus, N.J.) at an MTD of 0.5 mg/kg; all agents were administered via tail vein injection. TPT was measured by HPLC UV absorption as described (Thompson, J. et. al., id). Atomic absorption spectrometry of ultrafiltered and nonfiltered samples was used to measure platinum levels (Simpson, A. E. et al., “Transscleral diffusion of carboplatin: an in vitro and in vivo study”, Arch Ophthalmol 120: 1069-74 (2002)). Liquid scintillation was used to measure levels of [H^3]-VCR (70-90 Ci/mmol; PerkinElmer, Wellesley, Mass.). Mice received TPT, CBP, and VCR at a dose and schedule similar to that used to treat children with retinoblastoma (Schouten-Van Meeteren, A. Y. et al., “Overview: chemotherapy for retinoblastoma: an expanding area of clinical research”, Med Pediatr Oncol 38: 428-38 (2002)) or other brain tumors.
To measure retinal and vitreal penetration of TPT, CBP, and VCR, we injected each drug intravenously into 2-wk-old rats; this age corresponded to the stage of treatment in our xenograft model. Drug levels were measured in the vitreous, retina, and plasma at 3 min, 30 min, 1.5 h, 4 h, and 6 h after injection.

[2] = tested on: Y79 retinoblastoma xenograft; experiment: Orthotopic retinoblastoma xenograft in eyes of newborn rats; format: in vivo, rat
Source text: For some experiments, the retinoblastoma cells were labeled with a GFP transgene to unambiguously establish tumor boundaries.
To establish a baseline prior to chemotherapy treatment in our retinoblastoma xenograft model, we analyzed cell number, survival, proliferation, apoptosis, and gene expression 2 weeks after engraftment. One hour before analysis, the rats received an injection of BrdU to label the cells in the S-phase of the cell cycle, a measure of the fraction of dividing cells. The engrafted cells were microdissected from the normal tissue and dissociated; the total cell number was then scored. Calcein and ethidium bromide were used to measure metabolically active cells and dead cells, respectively. […] The fraction of dividing cells was estimated by staining with an anti-BrdU antibody and scoring the fraction of immunopositive cells. […] To estimate the proportion of cells that had initiated apoptosis, we performed a TUNEL assay.
After one course of treatment, the transplanted retinoblastoma cells were analyzed for viability and proliferation as described above.

retinoblastoma [3] = settings: subconjunctival administration; cited from earlier work
retinoblastoma [4] = settings: low-dose, frequent versus infrequent, high-dose administration; cited from earlier work
[5] = tested on: primary human retinoblastoma tumors; experiment: Enlarged nuclei in tumors removed from patients following VCR treatment; format: in vivo; settings: human tumors treated with VCR; control primary tumors 4%±1%
Source text: We were surprised that VCR was not effective at halting retinoblastoma growth in the orthotopic xenograft model because VCR is often combined with other chemotherapeutic agents in the treatment of retinoblastoma in children. It was possible that there was a minor effect of VCR treatment that was masked in our system by the active proliferation and expansion of the xenograft. One of the hallmarks of VCR exposure is a nucleus with twice the genomic DNA content, because VCR blocks cytokinesis without halting cell cycle progression. To test if there was any VCR-mediated block of mitosis, we scored the proportion of large cells with twice the genomic DNA content in cultured cells, xenografts, and tumors removed from patients following VCR treatment. […] The proportion of enlarged nuclei in xenografts and primary human tumors following VCR treatment was similar to control xenografts (3%±2%) and primary tumors (4%±1%), respectively.

[6] = 2-wk-old rats, intravenous, 3 min to 6 h

For N.N.O=C([O-])C1(C(=O)[O-])CCC1.[Pt+2] [CBP, carboplatin], the LD50 (Y79 cells) was 4000 nM, the LD50 (Weril cells; Weri1 cells) was 5000 nM and the “cell cycle arrest phase” value [1] was “arrested in either the G1 or G2 phase”. For the same molecule, the “exposure sufficient to achieve the maximum reduction in cell survival and proliferation” value ([1]; time course experiment) was 15 min, the p53 pathway activation (Y79 and Weril cells) was “not activated” and the AUC retina/plasma ratio (in vivo; [6]) was 0.03. For the same molecule, the AUC vitreous/plasma ratio (in vivo; [6]) was 0.59, the cell number/eye ([2]; 2-wk-old rats, after one course of treatment, untreated 2.4±0.6×10^6) was 0.79±0.29×10^6 cell number/eye and the “effect on tumor size” value (retinoblastoma [3]) was “effective at reducing tumor size”.

For CC[C@@]1(O)C(=O)OCc2c1cc1n(c2=O)Cc2cc3c(CN(C)C)c(O)ccc3nc2-1 [TPT, topotecan], the LD50 (Y79 cells) was 30 nM, the LD50 (Weril cells; Weril cells) was 19 nM and the “cell cycle arrest phase” value [1] was “G2 arrest”. The “proportion of cells arrested in G2 phase (FACS)” value ([1]; exposed for 10 min) was 36%, the “proportion of cells arrested in G2 phase (FACS)” value ([1]; exposed for 8 h) was 39% and the “exposure sufficient to achieve the maximum reduction in cell survival and proliferation” value ([1]; time course experiment) was 15 min. The p53 pathway activation (Y79 and Weril cells) was “activated”, the Kp (in vivo; AUC retina/plasma ratio) was 0.7 and the Kp (in vivo; AUC vitreous/plasma ratio) was 0.38. The “effect on tumor burden” value (retinoblastoma [4]) was “more effectively reduced the tumor burden”.

In the case of CC[C@]1(O)C[C@H]2CN(CCc3c([nH]c4ccccc34)[C@@](C(=O)OC)(c3cc4c(cc3OC)N(C=O)[C@H]3[C@@](O)(C(=O)OC)[C@H](OC(C)=O)[C@]5(CC)C=CCN6CC[C@]43[C@@H]65)C2)C1 [VCR, vincristine], the LD50 (Y79 cells) is reported as 5 nM, the LD50 (Weril cells; Weril cells) is reported as 3 nM and the “exposure time required to kill retinoblastoma cells in culture” value [1] is reported as 4 h. The “cells with twice their normal DNA content” value ([1]; cultured cells, 5 nM for 8 h) was “Approximately 98%”, the “exposure time of maximum decrease in viability” value ([1]; time course experiment) was 4 h and the Kp (in vivo; AUC retina/plasma ratio) was 1. For the same molecule, the Kp (in vivo; AUC vitreous/plasma ratio) was 1.1, the “effect on retinoblastoma cell survival” value ([2]; short-term assay, one course of treatment) was “little effect” and the “proportion of enlarged nuclei (cell cycle progression without cytokinesis)” value ([2]; xenografts treated with VCR, control xenografts 3%±2%) was 2%±1%. For the same molecule, the “proportion of enlarged nuclei (cell cycle progression without cytokinesis)” value [5] was 5%±1.5%.

Reference: patent publication US20050086708A1, “Animal models of retinal tumorigenesis” (priority 2003, published 2005)
